From PubChem BioAssay AID2060623 (Molecular Pharmacology Branch, DTP, NCI, 2025)
Where “and” joins values, the source holds several entries; their conditions need not be identical. Identical values can stand only once.

System: 227483-062-R1-J1-PDC complex spheroids with HUVEC/MSC, viability
Test: Anticancer human tumor 227483-062-R1-J1-PDC patient-derived pancreatic carcinoma cell line growth inhibition [CLK]
Details: for viability, T/C: stronger effect = lower value
Outline: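 Patient-derived tumor cells grown as complex spheroids with HUVEC endothelial cells and mesenchymal stem cells, treated with drug combinations. Concentrations descend in half-log steps from near clinical Cmax, or from 10 microM if Cmax unknown.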

[1] = curve of first compound, second compound 0.0316 µM
[2] = curve of first compound, second compound 0.1 µM
[3] = curve of first compound, second compound 0.316 µM
[4] = curve of first compound, second compound 1 µM
[5] = curve of first compound, second compound 3.16 µM
[6] = curve of first compound, second compound 10 µM
[7] = second compound 0.0316 µM, first compound 0.0316 µM
[8] = second compound 0.0316 µM, first compound 0.1 µM
[9] = second compound 0.0316 µM, first compound 0.316 µM
[10] = second compound 0.0316 µM, first compound 1 µM
[11] = second compound 0.0316 µM, first compound 3.16 µM
[12] = second compound 0.0316 µM, first compound 10 µM
[13] = second compound 0.1 µM, first compound 0.0316 µM
[14] = second compound 0.1 µM, first compound 0.1 µM
[15] = second compound 0.1 µM, first compound 0.316 µM
[16] = second compound 0.1 µM, first compound 1 µM
[17] = second compound 0.1 µM, first compound 3.16 µM
[18] = second compound 0.1 µM, first compound 10 µM
[19] = second compound 0.316 µM, first compound 0.0316 µM
[20] = second compound 0.316 µM, first compound 0.1 µM
[21] = second compound 0.316 µM, first compound 0.316 µM
[22] = second compound 0.316 µM, first compound 1 µM
[23] = second compound 0.316 µM, first compound 3.16 µM
[24] = second compound 0.316 µM, first compound 10 µM
[25] = second compound 1 µM, first compound 0.0316 µM
[26] = second compound 1 µM, first compound 0.1 µM
[27] = second compound 1 µM, first compound 0.316 µM
[28] = second compound 1 µM, first compound 1 µM
[29] = second compound 1 µM, first compound 3.16 µM
[30] = second compound 1 µM, first compound 10 µM
[31] = second compound 3.16 µM, first compound 0.0316 µM
[32] = second compound 3.16 µM, first compound 0.1 µM
[33] = second compound 3.16 µM, first compound 0.316 µM
[34] = second compound 3.16 µM, first compound 1 µM
[35] = second compound 3.16 µM, first compound 3.16 µM
[36] = second compound 3.16 µM, first compound 10 µM
[37] = second compound 10 µM, first compound 0.0316 µM
[38] = second compound 10 µM, first compound 0.1 µM
[39] = second compound 10 µM, first compound 0.316 µM
[40] = second compound 10 µM, first compound 1 µM
[41] = second compound 10 µM, first compound 3.16 µM
[42] = second compound 10 µM, first compound 10 µM
[43] = second compound 0.0316 µM, first compound 0.000949 µM
[44] = second compound 0.0316 µM, first compound 0.003 µM
[45] = second compound 0.0316 µM, first compound 0.00949 µM
[46] = second compound 0.0316 µM, first compound 0.03 µM
[47] = second compound 0.0316 µM, first compound 0.0949 µM
[48] = second compound 0.0316 µM, first compound 0.3 µM
[49] = second compound 0.1 µM, first compound 0.000949 µM
[50] = second compound 0.1 µM, first compound 0.003 µM
[51] = second compound 0.1 µM, first compound 0.00949 µM
[52] = second compound 0.1 µM, first compound 0.03 µM
[53] = second compound 0.1 µM, first compound 0.0949 µM
[54] = second compound 0.1 µM, first compound 0.3 µM
[55] = second compound 0.316 µM, first compound 0.000949 µM
[56] = second compound 0.316 µM, first compound 0.003 µM
[57] = second compound 0.316 µM, first compound 0.00949 µM
[58] = second compound 0.316 µM, first compound 0.03 µM
[59] = second compound 0.316 µM, first compound 0.0949 µM
[60] = second compound 0.316 µM, first compound 0.3 µM
[61] = second compound 1 µM, first compound 0.000949 µM
[62] = second compound 1 µM, first compound 0.003 µM
[63] = second compound 1 µM, first compound 0.00949 µM
[64] = second compound 1 µM, first compound 0.03 µM
[65] = second compound 1 µM, first compound 0.0949 µM
[66] = second compound 1 µM, first compound 0.3 µM
[67] = second compound 3.16 µM, first compound 0.000949 µM
[68] = second compound 3.16 µM, first compound 0.003 µM
[69] = second compound 3.16 µM, first compound 0.00949 µM
[70] = second compound 3.16 µM, first compound 0.03 µM
[71] = second compound 3.16 µM, first compound 0.0949 µM
[72] = second compound 3.16 µM, first compound 0.3 µM
[73] = second compound 10 µM, first compound 0.000949 µM
[74] = second compound 10 µM, first compound 0.003 µM
[75] = second compound 10 µM, first compound 0.00949 µM
[76] = second compound 10 µM, first compound 0.03 µM
[77] = second compound 10 µM, first compound 0.0949 µM
[78] = second compound 10 µM, first compound 0.3 µM
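Note: spheroids exposed to compounds for seven days before readout.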
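Throughout, for viability, T/C: percent of DMSO vehicle control luminescence as 100% viability.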

## CC1(C)CCC(CN2CCN(c3ccc(C(=O)NS(=O)(=O)c4ccc(NCC5CCOCC5)c([N+](=O)[O-])c4)c(Oc4cnc5[nH]ccc5c4)c3)CC2)=C(c2ccc(Cl)cc2)C1 + CNC(=O)c1ccc(Nc2nc(OC3CCCC3)c3c(-c4ccc5nc(C)oc5c4)c[nH]c3n2)c(OC)c1
[1]
  IC50: 5.96 µM
[2]
  IC50: 5.53 µM
[3]
  IC50: 5.27 µM
[4]
  IC50: 4.51 µM
[5]
  IC50: 3.45 µM
[6]
  IC50: < 0.0316 µM
[7]
  viability, T/C: 96.7%
[8]
  viability, T/C: 101%
[9]
  viability, T/C: 100%
[10]
  viability, T/C: 121%
[11]
  viability, T/C: 101%
[12]
  viability, T/C: 8.36%
[13]
  viability, T/C: 90.2%
[14]
  viability, T/C: 93.6%
[15]
  viability, T/C: 87.7%
[16]
  viability, T/C: 85.9%
[17]
  viability, T/C: 87.8%
[18]
  viability, T/C: 9.86%
[19]
  viability, T/C: 100%
[20]
  viability, T/C: 91.2%
[21]
  viability, T/C: 78.7%
[22]
  viability, T/C: 88.5%
[23]
  viability, T/C: 84.6%
[24]
  viability, T/C: 6.46%
[25]
  viability, T/C: 70.6%
[26]
  viability, T/C: 67.2%
[27]
  viability, T/C: 73.1%
[28]
  viability, T/C: 85.3%
[29]
  viability, T/C: 67.2%
[30]
  viability, T/C: 9.18%
[31]
  viability, T/C: 50.3%
[32]
  viability, T/C: 63.3%
[33]
  viability, T/C: 55.3%
[34]
  viability, T/C: 57.6%
[35]
  viability, T/C: 53.3%
[36]
  viability, T/C: 7.8%
[37]
  viability, T/C: 48%
[38]
  viability, T/C: 45%
[39]
  viability, T/C: 51.7%
[40]
  viability, T/C: 46.3%
[41]
  viability, T/C: 44.1%
[42]
  viability, T/C: 9.45%

## C=CC(=O)Nc1cc(Nc2nccc(-c3cn(C)c4ccccc34)n2)c(OC)cc1N(C)CCN(C)C + CNC(=O)c1ccc(Nc2nc(OC3CCCC3)c3c(-c4ccc5nc(C)oc5c4)c[nH]c3n2)c(OC)c1
[1]
  IC50: > 0.3 µM
[2]
  IC50: > 0.3 µM
[3]
  IC50: > 0.3 µM
[4]
  IC50: > 0.3 µM
[5]
  IC50: < 0.000949 µM
[6]
  IC50: < 0.000949 µM
[43]
  viability, T/C: 95.2%
[44]
  viability, T/C: 94.2%
[45]
  viability, T/C: 108%
[46]
  viability, T/C: 98.6%
[47]
  viability, T/C: 76.4%
[48]
  viability, T/C: 80.8%
[49]
  viability, T/C: 93.7%
[50]
  viability, T/C: 103%
[51]
  viability, T/C: 85.4%
[52]
  viability, T/C: 102%
[53]
  viability, T/C: 71.9%
[54]
  viability, T/C: 69.7%
[55]
  viability, T/C: 73.1%
[56]
  viability, T/C: 84.8%
[57]
  viability, T/C: 89.9%
[58]
  viability, T/C: 63.8%
[59]
  viability, T/C: 83.7%
[60]
  viability, T/C: 60.3%
[61]
  viability, T/C: 58.6%
[62]
  viability, T/C: 50.4%
[63]
  viability, T/C: 69.6%
[64]
  viability, T/C: 66.1%
[65]
  viability, T/C: 56.2%
[66]
  viability, T/C: 49.6%
[67]
  viability, T/C: 45.4%
[68]
  viability, T/C: 47.5%
[69]
  viability, T/C: 52.5%
[70]
  viability, T/C: 42.2%
[71]
  viability, T/C: 51.1%
[72]
  viability, T/C: 52.2%
[73]
  viability, T/C: 42.5%
[74]
  viability, T/C: 41.9%
[75]
  viability, T/C: 38.4%
[76]
  viability, T/C: 40.9%
[77]
  viability, T/C: 51.4%
[78]
  viability, T/C: 32.9%

## C=CC(=O)N1CCN(c2nc(=O)n(-c3c(C)ccnc3C(C)C)c3nc(-c4c(O)cccc4F)c(F)cc23)C(C)C1 (stereo not given) + CNC(=O)c1ccc(Nc2nc(OC3CCCC3)c3c(-c4ccc5nc(C)oc5c4)c[nH]c3n2)c(OC)c1
[1]
  IC50: > 10 µM
[2]
  IC50: > 10 µM
[3]
  IC50: > 10 µM
[4]
  IC50: > 10 µM
[5]
  IC50: 1.7 µM
[6]
  IC50: < 0.0316 µM
[7]
  viability, T/C: 107%
[8]
  viability, T/C: 92%
[9]
  viability, T/C: 135%
[10]
  viability, T/C: 103%
[11]
  viability, T/C: 104%
[12]
  viability, T/C: 108%
[13]
  viability, T/C: 110%
[14]
  viability, T/C: 101%
[15]
  viability, T/C: 111%
[16]
  viability, T/C: 118%
[17]
  viability, T/C: 121%
[18]
  viability, T/C: 107%
[19]
  viability, T/C: 111%
[20]
  viability, T/C: 87.9%
[21]
  viability, T/C: 108%
[22]
  viability, T/C: 104%
[23]
  viability, T/C: 124%
[24]
  viability, T/C: 98.6%
[25]
  viability, T/C: 70.3%
[26]
  viability, T/C: 57.6%
[27]
  viability, T/C: 57.9%
[28]
  viability, T/C: 63.5%
[29]
  viability, T/C: 65.8%
[30]
  viability, T/C: 52.3%
[31]
  viability, T/C: 45.4%
[32]
  viability, T/C: 63.2%
[33]
  viability, T/C: 50.2%
[34]
  viability, T/C: 51.6%
[35]
  viability, T/C: 47.9%
[36]
  viability, T/C: 26.6%
[37]
  viability, T/C: 37.7%
[38]
  viability, T/C: 35.5%
[39]
  viability, T/C: 39.5%
[40]
  viability, T/C: 44.5%
[41]
  viability, T/C: 36%
[42]
  viability, T/C: 18.6%

## C=CC(=O)Nc1cc(Nc2nccc(-c3cn(C)c4ccccc34)n2)c(OC)cc1N(C)CCN(C)C + CN1CCN(c2cc(C(=O)Nc3cc4cc(-c5cnn(C)c5)ccc4cn3)ccn2)CC1
[1]
  IC50: > 0.3 µM
[2]
  IC50: > 0.3 µM
[3]
  IC50: < 0.000949 µM
[4]
  IC50: < 0.000949 µM
[5]
  IC50: < 0.000949 µM
[6]
  IC50: < 0.000949 µM
[43]
  viability, T/C: 101%
[44]
  viability, T/C: 104%
[45]
  viability, T/C: 117%
[46]
  viability, T/C: 99.1%
[47]
  viability, T/C: 87.5%
[48]
  viability, T/C: 79.2%
[49]
  viability, T/C: 71.5%
[50]
  viability, T/C: 64.6%
[51]
  viability, T/C: 61.5%
[52]
  viability, T/C: 77%
[53]
  viability, T/C: 68%
[54]
  viability, T/C: 56%
[55]
  viability, T/C: 4.77%
[56]
  viability, T/C: 5.57%
[57]
  viability, T/C: 5.48%
[58]
  viability, T/C: 5.73%
[59]
  viability, T/C: 8.02%
[60]
  viability, T/C: 4.25%
[61]
  viability, T/C: 3.69%
[62]
  viability, T/C: 1.6%
[63]
  viability, T/C: 2.26%
[64]
  viability, T/C: 4.39%
[65]
  viability, T/C: 2.66%
[66]
  viability, T/C: 1.57%
[67]
  viability, T/C: 3.65%
[68]
  viability, T/C: 4.21%
[69]
  viability, T/C: 3%
[70]
  viability, T/C: 7.42%
[71]
  viability, T/C: 2.8%
[72]
  viability, T/C: 5.59%
[73]
  viability, T/C: 3.23%
[74]
  viability, T/C: 6.58%
[75]
  viability, T/C: 2.57%
[76]
  viability, T/C: 4.96%
[77]
  viability, T/C: 2.09%
[78]
  viability, T/C: 1.83%

## CC(C)CC(NC(=O)C(Cc1ccccc1)NC(=O)c1cnccn1)B(O)O (stereo not given)
Compound 0.000949 µM
  viability, T/C: 86.6% and 81.9%
Compound 0.003 µM
  viability, T/C: 2.59% and 1.33%
Compound 0.00949 µM
  viability, T/C: 0.56% and 0.57%
Compound 0.03 µM
  viability, T/C: 2.03% and 0.48%
Compound 0.0949 µM
  viability, T/C: 0.64% and 0.38%
Compound 0.3 µM
  viability, T/C: 0.96% and 0.35%
Curve of compound
  IC50: 0.00157 µM and 0.0015 µM
